# Calls of active or inactive are those of the source.
# Columns and labels:
# [1] = molecular target: Luciferin 4-monooxygenase (Photinus pyralis, UniProt P08659); assay: inhibition of purified Photinus pyralis luciferase – biochemical, luminescence, dose response (AID 1891)
# [2] = Luminescence Cell-Based Dose Confirmation HTS to Identify Inhibitors of Platelet Dense Granule Release. [Related pubchem assays: 1663 (Primary HTS), 1678 (Summary of Project)]; assay type: functional
# [3] = molecular target: T1, Heat shock factor protein 1 (Mus musculus, UniProt P38532); assay: decrease of HSF1-responsive luciferase luminescence – cell-based, NIH3T3, dose retest, confirmation (AID 2382); assay type: functional;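 further: NIH3T3 fibroblasts with HSF1-driven luciferase reporter stressed by proteasome inhibitor MG132; luminescence from HSF1-driven luciferase expression after 8 hours of MG132 stress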
# T1 sequence (P38532 whole entry): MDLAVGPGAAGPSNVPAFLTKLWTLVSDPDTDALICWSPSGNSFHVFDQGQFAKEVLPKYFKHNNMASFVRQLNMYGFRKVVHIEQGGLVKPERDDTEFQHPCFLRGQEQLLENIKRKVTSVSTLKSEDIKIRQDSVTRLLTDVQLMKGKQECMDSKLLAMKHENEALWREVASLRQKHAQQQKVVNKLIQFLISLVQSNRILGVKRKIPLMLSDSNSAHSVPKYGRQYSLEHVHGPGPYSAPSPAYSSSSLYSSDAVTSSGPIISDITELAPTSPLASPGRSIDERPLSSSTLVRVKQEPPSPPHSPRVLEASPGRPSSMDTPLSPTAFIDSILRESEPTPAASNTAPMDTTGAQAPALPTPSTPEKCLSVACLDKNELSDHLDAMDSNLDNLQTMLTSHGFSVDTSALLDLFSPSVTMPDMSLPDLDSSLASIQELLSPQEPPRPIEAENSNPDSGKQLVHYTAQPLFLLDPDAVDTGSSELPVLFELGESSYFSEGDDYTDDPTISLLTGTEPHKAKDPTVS
# [4] = molecular target: T1, Heat shock factor protein 1; assay: enhancement of HSF1-driven luciferase signal – cell-based, NIH3T3, luminescence, dose retest, confirmation (AID 435004); assay type: functional;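 further: stress induced by proteasome inhibitor MG132 added 30 min after compound; luciferase reporter driven by HSF1 response element in NIH3T3 cells; actives raise luminescence as potentiators of the MG132 stress response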
# [5] = reduction of Shn3 3'UTR-driven luciferase in osteoblasts – cell-based, Clone20 osteoblasts, firefly luciferase, cherry-picked, dose response (AID 624132); assay type: functional;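 further: firefly luciferase luminescence from reporter carrying the Shn3 3'UTR in osteoblasts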
# [6] = viability of uninfected HEp-2 cells – cell-based, HTS, cytotoxicity control for RSV inhibitor project, dose response (AID 2410); assay type: functional; details: human respiratory syncytial virus
# [7] = molecular target: T2, Polyadenylate-binding protein 1 (Homo sapiens, UniProt P11940); assay: MLLE binding blockers, Cy5 peptide tracer – biochemical, fluorescence polarization, Cy5-PAM2 peptide, secondary, miRNA deadenylation inhibitor project, dose response (AID 602260); assay type: functional; details: read-out: IC50_Mean
# T2 sequence (P11940 whole entry, the tested form may be a part): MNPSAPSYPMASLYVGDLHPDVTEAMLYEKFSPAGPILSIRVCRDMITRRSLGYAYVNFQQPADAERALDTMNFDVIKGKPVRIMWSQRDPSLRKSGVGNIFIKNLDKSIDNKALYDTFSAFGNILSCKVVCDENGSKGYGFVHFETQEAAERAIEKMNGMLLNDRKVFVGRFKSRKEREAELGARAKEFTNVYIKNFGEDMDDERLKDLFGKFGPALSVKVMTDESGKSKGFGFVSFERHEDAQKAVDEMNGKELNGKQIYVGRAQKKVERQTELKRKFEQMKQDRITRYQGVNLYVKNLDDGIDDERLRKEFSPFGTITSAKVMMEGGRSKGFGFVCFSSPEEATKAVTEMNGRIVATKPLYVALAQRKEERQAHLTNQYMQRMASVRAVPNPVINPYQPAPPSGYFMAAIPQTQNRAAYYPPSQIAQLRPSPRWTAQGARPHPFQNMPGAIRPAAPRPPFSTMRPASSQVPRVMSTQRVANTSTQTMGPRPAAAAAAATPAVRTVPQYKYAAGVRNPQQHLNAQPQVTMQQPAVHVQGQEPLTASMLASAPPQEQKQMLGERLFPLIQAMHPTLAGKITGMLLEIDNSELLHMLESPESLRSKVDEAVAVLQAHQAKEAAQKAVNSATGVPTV
# [8] = molecular target: T2, Polyadenylate-binding protein 1; assay: MLLE domain peptide-binding blockers, IC50 – biochemical, fluorescence polarization, FITC-PAM2 peptide, dose response (AID 602259); assay type: functional; details: read-out: IC50_Mean
# [9] = molecular target: T3, Replicative DNA helicase DnaB (Mycobacterium tuberculosis, UniProt P9WMR3); assay: DnaB intein splicing inhibitors, dose response, biochemical, cell-free fluorescence (AID 449749); assay type: functional
# T3 sequence (P9WMR3 whole entry): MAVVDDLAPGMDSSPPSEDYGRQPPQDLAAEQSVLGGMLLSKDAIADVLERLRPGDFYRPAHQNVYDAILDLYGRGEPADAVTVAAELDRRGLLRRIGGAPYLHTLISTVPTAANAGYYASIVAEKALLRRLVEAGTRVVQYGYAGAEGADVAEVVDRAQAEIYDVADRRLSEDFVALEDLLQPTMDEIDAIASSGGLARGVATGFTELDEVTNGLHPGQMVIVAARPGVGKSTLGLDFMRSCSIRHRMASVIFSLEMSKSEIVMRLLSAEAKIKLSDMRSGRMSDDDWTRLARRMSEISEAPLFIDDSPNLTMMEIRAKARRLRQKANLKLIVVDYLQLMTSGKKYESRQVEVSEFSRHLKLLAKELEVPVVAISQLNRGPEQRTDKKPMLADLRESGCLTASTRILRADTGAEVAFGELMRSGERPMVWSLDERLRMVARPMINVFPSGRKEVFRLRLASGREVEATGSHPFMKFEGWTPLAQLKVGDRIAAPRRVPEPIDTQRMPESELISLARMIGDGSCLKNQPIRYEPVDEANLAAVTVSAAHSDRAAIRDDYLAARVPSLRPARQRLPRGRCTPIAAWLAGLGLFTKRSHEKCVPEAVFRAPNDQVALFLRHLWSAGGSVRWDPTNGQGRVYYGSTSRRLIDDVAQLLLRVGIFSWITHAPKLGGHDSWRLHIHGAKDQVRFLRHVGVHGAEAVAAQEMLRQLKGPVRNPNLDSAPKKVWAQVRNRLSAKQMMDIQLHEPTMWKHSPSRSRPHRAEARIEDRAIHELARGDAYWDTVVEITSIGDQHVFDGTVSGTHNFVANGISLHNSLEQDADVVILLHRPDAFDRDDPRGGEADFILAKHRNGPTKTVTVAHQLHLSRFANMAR
# [10] = molecular target: T4, Protein RecA (Mycobacterium tuberculosis, UniProt P9WHJ3); assay: Fluorescence Cell-Free Homogeneous Dose Retest to Identify Inhibitors of RecA-Intein Splicing Activity. [Related pubchem assays (depositor defined):AID2097, AID2223, AID489010, AID492950]; assay type: functional
# T4 sequence (P9WHJ3 whole entry): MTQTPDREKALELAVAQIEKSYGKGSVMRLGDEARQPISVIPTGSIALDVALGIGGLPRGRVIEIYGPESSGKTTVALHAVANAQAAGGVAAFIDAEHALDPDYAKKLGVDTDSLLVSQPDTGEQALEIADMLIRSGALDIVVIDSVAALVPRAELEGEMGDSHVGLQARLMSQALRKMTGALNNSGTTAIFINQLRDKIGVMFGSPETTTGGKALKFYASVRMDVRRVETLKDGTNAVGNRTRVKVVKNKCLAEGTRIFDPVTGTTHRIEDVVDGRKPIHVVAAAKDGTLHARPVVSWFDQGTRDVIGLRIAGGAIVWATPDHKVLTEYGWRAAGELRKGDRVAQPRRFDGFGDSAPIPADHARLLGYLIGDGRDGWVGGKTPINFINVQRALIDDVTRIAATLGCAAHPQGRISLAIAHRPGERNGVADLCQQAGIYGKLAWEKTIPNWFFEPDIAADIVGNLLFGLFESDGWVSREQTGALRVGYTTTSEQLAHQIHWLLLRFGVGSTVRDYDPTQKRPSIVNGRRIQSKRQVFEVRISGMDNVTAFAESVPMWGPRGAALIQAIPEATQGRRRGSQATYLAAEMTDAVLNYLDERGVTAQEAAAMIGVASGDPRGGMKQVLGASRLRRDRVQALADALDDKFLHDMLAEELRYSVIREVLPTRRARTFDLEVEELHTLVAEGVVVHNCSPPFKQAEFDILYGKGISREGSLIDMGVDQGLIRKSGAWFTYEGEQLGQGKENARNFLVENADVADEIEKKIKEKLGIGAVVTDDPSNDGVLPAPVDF
# Sequence of Luciferin 4-monooxygenase (P08659 whole entry): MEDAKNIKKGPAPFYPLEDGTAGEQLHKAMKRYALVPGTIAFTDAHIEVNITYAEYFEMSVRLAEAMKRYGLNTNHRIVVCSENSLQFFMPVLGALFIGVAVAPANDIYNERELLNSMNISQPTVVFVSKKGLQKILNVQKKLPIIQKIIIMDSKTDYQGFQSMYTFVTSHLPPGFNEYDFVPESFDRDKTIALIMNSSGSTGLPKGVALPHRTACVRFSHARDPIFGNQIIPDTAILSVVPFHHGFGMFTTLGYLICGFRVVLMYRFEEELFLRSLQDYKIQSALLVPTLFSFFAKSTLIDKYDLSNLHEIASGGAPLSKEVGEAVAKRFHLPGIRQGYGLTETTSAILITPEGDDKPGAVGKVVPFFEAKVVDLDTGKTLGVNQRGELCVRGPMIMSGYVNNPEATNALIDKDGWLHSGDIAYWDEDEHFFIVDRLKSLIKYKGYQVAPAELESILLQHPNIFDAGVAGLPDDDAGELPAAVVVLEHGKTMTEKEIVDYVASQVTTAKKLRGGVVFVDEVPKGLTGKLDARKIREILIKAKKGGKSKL
smiles,measurement,setting,value
O=C(CSCc1c(Cl)cccc1Cl)NCc1ccco1,EC50,[1],> 112 µM (not active)
same,EC50,[2],> 112 µM (not active)
COc1ccc(-c2nc(C[S+]([O-])CC(=O)NC3CCCC(C)C3C)c(C)o2)cc1OC (stereo unspecified),EC50,[1],> 112 µM (not active)
same,EC50,[2],> 112 µM (not active)
Cc1ncoc1C(=O)Nc1ccc2c(c1)OCCO2,EC50,[1],34.3 µM (active)
same,EC50,[2],5.11 µM (active)
CCOc1ccccc1NC(=O)CCS(=O)(=O)c1cccs1,EC50,[3],> 195 µM (not active)
Cn1c(SCC(=O)NNC(=O)Nc2ccc(Cl)cc2)nnc1-c1ccccc1,EC50,[4],> 260 µM (inactive)
COC(=O)c1sccc1NC(=O)Nc1cccc(F)c1,EC50,[1],0.93 µM (active)
same,EC50,[2],4.6 µM (active)
same,EC50,[4],237 µM (active)
Cc1cc(C)n(C(=O)c2ccc(S(=O)(=O)N3CCCC3)cc2)n1,EC50,[1],> 112 µM (not active)
same,EC50,[2],> 112 µM (not active)
Cc1cccc(C)c1NC(=O)CN(C)C(=O)c1cc(S(=O)(=O)N(C)C)ccc1N1CCCC1,AC50,[5],27.1 µM (active)
CC1Cc2ccccc2N1C(=O)CSc1ncccc1C(=O)O (stereo unspecified),EC50,[3],> 195 µM (not active)
CCOC(=O)NC1(C(F)(F)F)NC(=O)N(Cc2ccco2)C1=O (stereo unspecified),EC50,[1],> 112 µM (not active)
same,EC50,[2],> 112 µM (not active)
CN(c1ccccc1)S(=O)(=O)c1cccc(NC(=O)c2cncc(Br)c2)c1,CC50,[6],12.4 µM (active)
CCN=C(S)NS(=O)(=O)c1ccc(C)cc1,IC50,[7],> 66 µM (inactive)
same,IC50,[8],> 66 µM (inactive)
CCN(CC)CCCN1C(=O)CSC1c1ccc([N+](=O)[O-])cc1 (stereo unspecified),IC50,[7],> 66 µM (inactive)
same,IC50,[8],> 66 µM (inactive)
Cc1ccc(CN(C)C(=O)C2CCC(=O)N(CCc3ccccc3)C2)o1 (stereo unspecified),EC50,[4],> 260 µM (inactive)
O=C(CCl)Nc1ccccc1C(=O)Nc1ccc2c(c1)OCO2,EC50,[1],> 112 µM (not active)
same,EC50,[2],27.7 µM (active)
same,AC50,[9],64.8 µM (active)
same,EC50,[10],13 µM (active)
CCOc1ccccc1N(C(=O)c1snc(C(N)=O)c1N)C(C(=O)NC1CCCC1)c1cccs1 (stereo unspecified),IC50,[7],> 66 µM (inactive)
same,IC50,[8],> 66 µM (inactive)
COc1ccc(NC(=O)NNC(=O)c2cc3occc3n2C)c(OC)c1,EC50,[4],> 260 µM (inactive)
CCN1C(NCCc2cccs2)=N[C@@H](c2cccs2)C(C(=O)OC)=C1C,EC50,[3],> 195 µM (not active)
